Data from ChEMBL document CHEMBL6096678, “Targeting QPCTL: An Emerging Therapeutic Opportunity” (J Med Chem, 2025).

Columns and labels:
[1] = target: T1, Glutaminyl-peptide cyclotransferase-like protein (Homo sapiens, UniProt Q9NXS2); test: Binding affinity to QPCTL (unknown origin) assessed as dissociation constant
[2] = target: Glutaminyl-peptide cyclotransferase (Homo sapiens, UniProt Q16769); test: Binding affinity to QPCT (unknown origin) assessed as inhibition constant
[3] = target: T1, Glutaminyl-peptide cyclotransferase-like protein; test: Binding affinity to QPTCL (unknown origin) assessed as inhibition constant
[4] = target: T1, Glutaminyl-peptide cyclotransferase-like protein; test: Binding affinity to QPCTL (unknown origin) extracted from Escherichia coli BL21 (DE3) assessed as inhibition constant
[5] = target: T1, Glutaminyl-peptide cyclotransferase-like protein; test: Inhibition of QPCTL (unknown origin)

T1 sequence (Q9NXS2 whole entry): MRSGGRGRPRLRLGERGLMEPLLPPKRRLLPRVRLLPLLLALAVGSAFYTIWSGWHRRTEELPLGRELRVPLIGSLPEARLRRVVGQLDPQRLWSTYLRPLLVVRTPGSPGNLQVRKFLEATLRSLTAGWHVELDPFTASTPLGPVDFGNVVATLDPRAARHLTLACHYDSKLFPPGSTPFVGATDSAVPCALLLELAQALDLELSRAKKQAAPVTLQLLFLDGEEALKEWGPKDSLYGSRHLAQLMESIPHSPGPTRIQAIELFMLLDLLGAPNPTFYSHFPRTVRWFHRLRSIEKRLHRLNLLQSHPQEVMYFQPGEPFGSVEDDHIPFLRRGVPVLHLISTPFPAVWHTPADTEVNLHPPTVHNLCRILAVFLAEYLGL
Glutaminyl-peptide cyclotransferase, sequence (Q16769 whole entry): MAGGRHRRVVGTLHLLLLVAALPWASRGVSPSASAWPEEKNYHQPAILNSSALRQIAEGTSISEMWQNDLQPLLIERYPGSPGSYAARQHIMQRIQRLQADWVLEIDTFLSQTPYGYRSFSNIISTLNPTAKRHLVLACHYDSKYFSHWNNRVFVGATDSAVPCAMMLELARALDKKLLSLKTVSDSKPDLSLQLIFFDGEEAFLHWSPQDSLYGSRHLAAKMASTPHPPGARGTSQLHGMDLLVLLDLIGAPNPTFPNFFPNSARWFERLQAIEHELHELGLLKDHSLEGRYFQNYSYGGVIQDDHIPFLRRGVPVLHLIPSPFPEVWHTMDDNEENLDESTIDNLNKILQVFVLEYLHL

O=c1cc(-c2ccc(O)c(O)c2)oc2cc(O)cc(O)c12 [LUTEOLIN]
Kd [1]: 9400 nM

CCCOc1ccc(C2c3c(nn(C)c3C)C(=O)N2c2ccc3[nH]cnc3c2)c(F)c1 (configuration not stated)
Ki [2]: < 100 nM | Ki [3]: < 25 nM

Cn1ccnc1 [1-METHYLIMIDAZOLE]
Ki [4]: 79000 nM

O=C1[C@H](O)[C@H](c2c(F)cc(-c3cnn(C(F)F)c3)cc2F)N1c1ccc2[nH]cnc2c1
Ki [3]: < 2 nM

CCCOc1ccc([C@H]2CNC(=O)N2c2ccc3[nH]cnc3c2)cc1 [VAROGLUTAMSTAT]
Ki [3]: 5 nM

Cc1ccc(-c2ccsc2)c(N2CCC(c3nnc(N)n3C)CC2)n1
IC50 [5]: < 1 nM
